From US12728177B2, “Disinfectant composition with rapid antiviral efficacy” (priority 2015, dated 2026) come the findings set out here.

Structures can show the parent of a compound that is named as a salt.

This test deals with Bacteriophage Phi X174 (ATCC 13706-81). Nature of the test: Virucidal infectivity (percent reduction in virus infectivity, E. coli outgrowth with resazurin dye).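 Also: exposed phage diluted into broth, E. coli outgrowth followed 16-24 h at 37 °C by fluorescence rate, unexposed phage set as 100% signal, phage-free as 0%.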 Conditions: 10-minute exposure.
The mark [1] stands for this setting: secondary agent 3 mM + Maleic Acid 3 mM.
Setting [2] is: secondary agent 3 mM + Phosphonc Acid 50-150 mM.
[3] abbreviates: secondary agent 3 mM + Sulfosuccinic Acid 10-32 mM.

Description: Bacteriophage Phi X174 (ATCC 13706-81) was added 1:10 (−108 plaque forming units (PFU) per sample) into a solution containing the composition of interest. Following a 10-minute exposure, the sample was transferred 1:10 into Tryptic Soy Broth (TSB). Following 10 minutes in TSB, a second 1:10 dilution was completed into an outgrowth solution for the Phi X174 host (E. coli ATCC 13706) that contained TSB and a resazurin dye. E. coli outgrowth was then monitored at 37° C. for 16-24 hours and the rate of fluorescence development was calculated. The rate observed when Phi X174 was not exposed to any composition represented a 100% Phi X174 signal. The rate observed without Phi X174 present represented a “0% signal.” The rate obtained following Phi X174 exposure to a given composition was compared to the signal obtained with no exposure to calculate the “percent reduction in virus infectivity.”

`N=C(N)NN` [Aminoguanidine Hydrochloride]: the “% Reduction, Secondary Antiviral Agent Alone” value (“% Reduction” below) was 2% (agent alone 6 mM), 7% (agent alone 18 mM), 4% (agent alone 53 mM) and 1% (agent alone 158 mM). Besides, the “reduction in virus infectivity, in Combination with Maleic Acid (3 mM)” value (“reduction in virus infectivity … (3 mM)” for short) under setting [1] came out at 12%; the “reduction in virus infectivity … (3 mM)” value (secondary agent 9 mM + Maleic Acid 3 mM) amounted to 4%; the “reduction in virus infectivity … (3 mM)” value (secondary agent 28 mM + Maleic Acid 3 mM) is reported as 0%; the “reduction in virus infectivity … (3 mM)” value (secondary agent 85 mM + Maleic Acid 3 mM) is on record as 0%. For the same compound, the “reduction in virus infectivity, in Combination with Phosphonc Acid (50-150 mM)” value (from here on “reduction in virus infectivity … (50-150 mM)”) by setting is: under setting [2], 50%; (secondary agent 9 mM + Phosphonc Acid 50-150 mM) 86%; (secondary agent 28 mM + Phosphonc Acid 50-150 mM) 50%; (secondary agent 85 mM + Phosphonc Acid 50-150 mM) 99%. The “reduction in virus infectivity, in Combination with Sulfosuccinic Acid (10-32 mM)” value (from here on “reduction in virus infectivity … (10-32 mM)”) amounted to 0% under setting [3], 0% (secondary agent 9 mM + Sulfosuccinic Acid 10-32 mM), 4% (secondary agent 28 mM + Sulfosuccinic Acid 10-32 mM) and 13% (secondary agent 85 mM + Sulfosuccinic Acid 10-32 mM).

With `[Cl][Cu][Cl]` [Copper (II) Chionde], the “% Reduction” value reads like this: (agent alone 1 mM) 20%; (agent alone 4 mM) 18%; (agent alone 9 mM) 23%; (agent alone 27 mM) 99%. In addition, the “reduction in virus infectivity … (3 mM)” value came to 70% (secondary agent 26 mM + Maleic Acid 3 mM), 72% (secondary agent 1-3 mM + Maleic Acid 3 mM), 57% (secondary agent 4-6 mM + Maleic Acid 3 mM) and 38% (secondary agent 11-13 mM + Maleic Acid 3 mM). Also, the “reduction in virus infectivity … (50-150 mM)” value was 99% (secondary agent 26 mM + Phosphonc Acid 50-150 mM), 44% (secondary agent 1-3 mM + Phosphonc Acid 50-150 mM), 87% (secondary agent 4-6 mM + Phosphonc Acid 50-150 mM) and 80% (secondary agent 11-13 mM + Phosphonc Acid 50-150 mM). Besides, the “reduction in virus infectivity … (10-32 mM)” value was 99% (secondary agent 26 mM + Sulfosuccinic Acid 10-32 mM), 94% (secondary agent 1-3 mM + Sulfosuccinic Acid 10-32 mM), 96% (secondary agent 4-6 mM + Sulfosuccinic Acid 10-32 mM) and 99% (secondary agent 11-13 mM + Sulfosuccinic Acid 10-32 mM).

As for `CCCCCCCCCCO[C@@H]1O[C@H](CO)[C@@H](O)[C@H](O)[C@H]1O` [EcoSense 3000, Decyl Glucoside], the “% Reduction” value is listed as 14% (agent alone 8 mM), 0% (agent alone 23 mM), 0% (agent alone 69 mM) and 0% (agent alone 207 mM). Further, the “reduction in virus infectivity … (3 mM)” value (secondary agent 0.3 mM + Maleic Acid 3 mM) was found to be 0%; the “reduction in virus infectivity … (3 mM)” value (secondary agent 1 mM + Maleic Acid 3 mM) is 0%; the “reduction in virus infectivity … (3 mM)” value (secondary agent 7 mM + Maleic Acid 3 mM) was 0%; the “reduction in virus infectivity … (3 mM)” value (secondary agent 37 mM + Maleic Acid 3 mM) turned out to be 0%.

In the case of `N=C(N)N` [Guanidine Hydrochloride], the “% Reduction” value runs as follows: (agent alone 6 mM) 0%; (agent alone 18 mM) 0%; (agent alone 55 mM) 0%; (agent alone 164 mM) 0%. The “reduction in virus infectivity … (3 mM)” value reads like this: under setting [1], 0%; (secondary agent 10 mM + Maleic Acid 3 mM) 0%; (secondary agent 29 mM + Maleic Acid 3 mM) 0%; (secondary agent 86 mM + Maleic Acid 3 mM) 0%. Also, the “reduction in virus infectivity … (50-150 mM)” value is, setting by setting: under setting [2], 40%; (secondary agent 10 mM + Phosphonc Acid 50-150 mM) 34%; (secondary agent 29 mM + Phosphonc Acid 50-150 mM) 34%; (secondary agent 86 mM + Phosphonc Acid 50-150 mM) 46%. Also, the “reduction in virus infectivity … (10-32 mM)” value under setting [3] is 10%; the “reduction in virus infectivity … (10-32 mM)” value (secondary agent 10 mM + Sulfosuccinic Acid 10-32 mM) was determined as 12%; the “reduction in virus infectivity … (10-32 mM)” value (secondary agent 29 mM + Sulfosuccinic Acid 10-32 mM) turned out to be 1%; the “reduction in virus infectivity … (10-32 mM)” value (secondary agent 86 mM + Sulfosuccinic Acid 10-32 mM) amounted to 0%.

Regarding `CCCCCCCC/C=C\CCCCCCCC(=O)N(C)CCS(=O)(=O)[O-].[Na+]` [Hostapon TPHC, Sodium Methyl Oleoyl Taurate], the “% Reduction” value (agent alone 25 mM) was 0%; the “% Reduction” value (agent alone 42 mM) came to 0%; the “% Reduction” value (agent alone 50 mM) is given as 0%; the “% Reduction” value (agent alone 67 mM) came to 0%. Besides, the “reduction in virus infectivity … (3 mM)” value came out at 0% (secondary agent 25 mM + Maleic Acid 3 mM), 0% (secondary agent 42 mM + Maleic Acid 3 mM), 0% (secondary agent 50 mM + Maleic Acid 3 mM) and 0% (secondary agent 67 mM + Maleic Acid 3 mM). The “reduction in virus infectivity … (50-150 mM)” value by setting is: (secondary agent 25 mM + Phosphonc Acid 50-150 mM) 99%; (secondary agent 42 mM + Phosphonc Acid 50-150 mM) 96%; (secondary agent 50 mM + Phosphonc Acid 50-150 mM) 99%; (secondary agent 67 mM + Phosphonc Acid 50-150 mM) 99%. In addition, the “reduction in virus infectivity … (10-32 mM)” value came to 99% (secondary agent 25 mM + Sulfosuccinic Acid 10-32 mM), 88% (secondary agent 42 mM + Sulfosuccinic Acid 10-32 mM), 50% (secondary agent 50 mM + Sulfosuccinic Acid 10-32 mM) and 1% (secondary agent 67 mM + Sulfosuccinic Acid 10-32 mM).

Take `CCCCCCCCCC[N+](C)(C)[O-]` [Mackamine C-10, Decylamina oxide]: the “% Reduction” value by setting is: (agent alone 6 mM) 7%; (agent alone 18 mM) 4%; (agent alone 53 mM) 11%; (agent alone 183 mM) 30%. Moreover, the “reduction in virus infectivity … (3 mM)” value by setting is: (secondary agent 30 mM + Maleic Acid 3 mM) 10%; (secondary agent 49 mM + Maleic Acid 3 mM) 35%; (secondary agent 59 mM + Maleic Acid 3 mM) 64%; (secondary agent 79 mM + Maleic Acid 3 mM) 62%. Moreover, the “reduction in virus infectivity … (50-150 mM)” value (secondary agent 30 mM + Phosphonc Acid 50-150 mM) was determined as 0%; the “reduction in virus infectivity … (50-150 mM)” value (secondary agent 49 mM + Phosphonc Acid 50-150 mM) is on record as 0%; the “reduction in virus infectivity … (50-150 mM)” value (secondary agent 59 mM + Phosphonc Acid 50-150 mM) is listed as 0%; the “reduction in virus infectivity … (50-150 mM)” value (secondary agent 79 mM + Phosphonc Acid 50-150 mM) stood at 0%. Besides, the “reduction in virus infectivity … (10-32 mM)” value was 6% (secondary agent 30 mM + Sulfosuccinic Acid 10-32 mM), 0% (secondary agent 49 mM + Sulfosuccinic Acid 10-32 mM), 2% (secondary agent 59 mM + Sulfosuccinic Acid 10-32 mM) and 0% (secondary agent 79 mM + Sulfosuccinic Acid 10-32 mM).

Take `O=C(O)/C=C\C(=O)O` [Maleic Acid]: the “reduction in virus infectivity, Primary Antiviral Agent without secondary agent (None)” value (Maleic Acid 3 mM, no secondary agent) is reported as 1-8%.
